The text below walks through data of PubChem BioAssay AID651617 (Broad Institute, 2012).

What is called IC90 is the point of the concentration-response curve where the effect stands at 90%.

SMILES strings stand for the structures.

The subject of this assay is M. tuberculosis log-phase replicating growth, plate reader. The assay is described as follows: growth inhibition of replicating M. tuberculosis, dose response, counter-screen, dry powder (AID 651617). A general note: A counterscreen serves to expose hits that act by an unwanted route or on another target.
Consider `[N-]=[N+]=NCCOCCNC(=O)CCCOc1ccc(CS(=O)c2nnc(-c3ccc(F)cc3)o2)nc1` (stereo not drawn), for which the IC90 is 125 µM.
Consider `c1ccc(-c2nnc(SCC3CC3)o2)cc1`, for which the IC90 is 125 µM.
Turning to `c1ccc(-c2nnc(SCc3cccnc3)o2)cc1`, the IC90 was 125 µM.
